Results as given in patent US5281602A, “Angiotensin II receptor blocking 2,3,6-substituted 5,6,7,8-tetrahydro-pyrido[4,3-D]pyrimidin-4(3H)-ones” (American Cyanamid Company, priority 1993, dated 1994).
“And” between values parts separate entries of the source, which are not always exact repeats. Equal values may be shown once.

Columns and labels:
[1] = system: ANGIOTENSIN II (A11) VASOPRESSOR RESPONSE; test: AII Challenge: blockade of angiotensin II vasopressor response in conscious SHR; type: in vivo, rat (Conscious Male Okamoto-Aoki SHR)
Text: By administering a compound of this invention to a rat, and then challenging with angiotensin II, a blockage of the vasopressor response is realized.
Conscious Male Okamoto-Aoki SHR, 16-20 weeks old, weighing approximately 330 g are purchased from Charles River Labs (Wilmington, Mass.). Conscious rats are restrained in a supine position with elastic tape. The area at the base of the tail is locally anesthetized by subcutaneous infiltration with 2% procaine. The ventral caudal artery and vein are isolated, and a cannula made of polyethylene (PE) 10-20 tubing (fused together by heat) is passed into the lower abdominal aorta and vena cava, respectively. The cannula is secured, heparinized (1,000 I.U./ml), sealed and the wound is closed. The animals are placed in plastic restraining cages in an upright position. The cannula is attached to a Statham P23Db pressure transducer, and pulsatile blood pressure is recorded to 10-15 minutes with a Gould Brush recorder. (Chan et al., (Drug Development Res., 18:75-94, 1989).
Angiotensin II (human sequence, Sigma Chem. Co., St. Louis, Mo.) of 0.05 and 0.1 ug/kg i.v. is injected into all rats (predosing response). Then a test compound, vehicle or a known angiotensin II antagonist is administered i.v., i.p. or orally to each set of rats. […] The vasopressor response of angiotensin II is measured for the increase in systolic blood pressure in mmHg. The percentage of antagonism or blockade of the vasopressor response of angiotensin II by a compound is calculated using the vasopressor response (increase in systolic blood pressure) of angiotensin II of each rat predosing the compound as 100%. A compound is considered active if at 30 mg/kg i.v. it antagonized at least 50% of the response.

Angiotension II Receptor = test: Receptor Binding Assay: competition with [^125 I] (Sar^1,Ile^8) AngII on microsomal membranes; conditions: pH 7.4, 60 min, room temperature
Protocol: Binding of [^125 I] (Sar^1,Ile^8) AngII
The binding of [^125 I] (Sar^1,Ile^8) AngII to microsomal membranes is initiated by the addition of reconstituted membranes (1:10 vols.) in freshly made 50.0 mMTris.HCl buffer, pH 7.4 containing 0.25% heat inactivated bovine serum albumin (BSA):80 ul membrane protein (10 to 20 ug/assay) to wells already containing 100 ul of incubation buffer (as described above) and 20 ul [^125 I] (Sar^1,Ile^8) AngII (Specific Activity, 2200 Ci/mmole). Non-specific binding is measured in the presence of 1.0 uM unlabeled (Sar^1,Ile^8) AngII, added in 20 ul volume. Specific binding for [^125 I] (Sar^1,Ile^8) AngII is greater than 90%. In competition studies, experimental compounds are diluted in dimethylsulfoxide (DMSO) and added in 20 ul to wells before the introduction of tissue membranes. This concentration of DMSO is found to have no negative effects on the binding of [^125 I] (Sar^1,Ile^8) AngII to the membranes. Assays are performed in triplicate. […] Presoaking the filter sheet in 0.1% polyethylenemine in normal saline (PEI/Saline) greatly reduces the radioactivity retained by the filter blanks. […] The filters are removed from the filter grid and counted in a Parkard® Cobra Gamma Counter for 1 min. […] The binding data are analyzed by the non-linear interactive "LUNDON-1" program (LUNDON SOFTWARE Inc., Cleveland, Ohio U.S.A.). […]

[2] = 15 mg/kg IV, AII 0.05 mcg/kg IV, 30 min post dose
[3] = 15 mg/kg IV, AII 0.05 mcg/kg IV, 60 min post dose
[4] = 15 mg/kg IV, AII 0.05 mcg/kg IV, 90 min post dose
[5] = 15 mg/kg IV, AII 0.1 mcg/kg IV, 30 min post dose
[6] = 15 mg/kg IV, AII 0.1 mcg/kg IV, 60 min post dose
[7] = 15 mg/kg IV, AII 0.1 mcg/kg IV, 90 min post dose
[8] = under second '15 IV' line, AII 0.05 mcg/kg IV, 120 min
[9] = under second '15 IV' line, AII 0.05 mcg/kg IV, 180 min
[10] = under second '15 IV' line, AII 0.1 mcg/kg IV, 120 min
[11] = under second '15 IV' line, AII 0.1 mcg/kg IV, 180 min

CCCCc1nc2c(c(=O)n1Cc1ccc(-c3ccccc3-c3nnn[nH]3)cc1)CN(C(=O)OCc1ccccc1)CC2 [Example 7, Phenylmethyl 2-butyl-3,5,7,8-tetrahydro-4-oxo-3-[[2'-(1H-tetrazol-5-yl)[1,1' -biphenyl] -4-yl]methyl]pyrido[4,3-d]pyrimidin-6(4H)-carboxylate]
Average % Inhibition (angiotensin blockage) of AII vasopressor response [1, 2]: 71% | Average Change (systolic blood pressure response to AII) [1, 2]: 11 mmHg | Average % Inhibition (angiotensin blockage) of AII vasopressor response [1, 3]: 33% | Average Change (systolic blood pressure response to AII) [1, 3]: 25 mmHg | Change (single reading, systolic blood pressure) ([1]; 15 mg/kg IV, AII 0.05 mcg/kg IV, 60 min post dose, 15 mg/kg): 30 mmHg and 20 mmHg | Average % Inhibition (angiotensin blockage) of AII vasopressor response [1, 4]: 31% | Average Change (systolic blood pressure response to AII) [1, 4]: 26 mmHg | Change (single reading, systolic blood pressure) ([1]; 15 mg/kg IV, AII 0.05 mcg/kg IV, 90 min post dose, 15 mg/kg): 30 mmHg and 22 mmHg | Average % Inhibition (angiotensin blockage) of AII vasopressor response [1, 5]: 59% | Average Change (systolic blood pressure response to AII) [1, 5]: 17.5 mmHg | Change (single reading, systolic blood pressure) ([1]; 15 mg/kg IV, AII 0.1 mcg/kg IV, 30 min post dose, 15 mg/kg): 15 mmHg and 20 mmHg | Average % Inhibition (angiotensin blockage) of AII vasopressor response [1, 6]: 11% | Average Change (systolic blood pressure response to AII) [1, 6]: 38 mmHg | Change (single reading, systolic blood pressure) ([1]; 15 mg/kg IV, AII 0.1 mcg/kg IV, 60 min post dose, 15 mg/kg): 40 mmHg and 36 mmHg | Average % Inhibition (angiotensin blockage) of AII vasopressor response [1, 7]: 0% | Average Change (systolic blood pressure response to AII) [1, 7]: 42.5 mmHg | Change (single reading, systolic blood pressure) ([1]; 15 mg/kg IV, AII 0.1 mcg/kg IV, 90 min post dose, 15 mg/kg): 40 mmHg and 45 mmHg | Response After A11 (systolic blood pressure) ([1]; 15 mg/kg IV, after AII 0.05 mcg/kg IV, 30 min post dose, 15 mg/kg): 192 mmHg and 175 mmHg | Response After A11 (systolic blood pressure) ([1]; 15 mg/kg IV, after AII 0.05 mcg/kg IV, 60 min post dose, 15 mg/kg): 200 mmHg and 190 mmHg | Response After A11 (systolic blood pressure) ([1]; 15 mg/kg IV, after AII 0.05 mcg/kg IV, 90 min post dose, 15 mg/kg): 200 mmHg and 182 mmHg | Response After A11 (systolic blood pressure) ([1]; 15 mg/kg IV, after AII 0.1 mcg/kg IV, 30 min post dose, 15 mg/kg): 190 mmHg and 180 mmHg | Response After A11 (systolic blood pressure) ([1]; 15 mg/kg IV, after AII 0.1 mcg/kg IV, 60 min post dose, 15 mg/kg): 215 mmHg and 206 mmHg | Response After A11 (systolic blood pressure) ([1]; 15 mg/kg IV, after AII 0.1 mcg/kg IV, 90 min post dose, 15 mg/kg): 210 mmHg and 200 mmHg | Control Before A11 (systolic blood pressure) ([1]; 15 mg/kg IV, before AII 0.05 mcg/kg IV, 30 min post dose, 15 mg/kg): 185 mmHg and 160 mmHg | Control Before A11 (systolic blood pressure) ([1]; 15 mg/kg IV, before AII 0.05 mcg/kg IV, 60 min post dose): 170 mmHg | Control Before A11 (systolic blood pressure) ([1]; 15 mg/kg IV, before AII 0.05 mcg/kg IV, 90 min post dose, 15 mg/kg): 170 mmHg and 160 mmHg | Control Before A11 (systolic blood pressure) ([1]; 15 mg/kg IV, before AII 0.1 mcg/kg IV, 30 min post dose, 15 mg/kg): 175 mmHg and 160 mmHg | Control Before A11 (systolic blood pressure) ([1]; 15 mg/kg IV, before AII 0.1 mcg/kg IV, 60 min post dose, 15 mg/kg): 175 mmHg and 170 mmHg | Control Before A11 (systolic blood pressure) ([1]; 15 mg/kg IV, before AII 0.1 mcg/kg IV, 90 min post dose, 15 mg/kg): 170 mmHg and 155 mmHg | Average % Inhibition (angiotensin blockage) of AII vasopressor response [1, 8]: 87% | Average Change (systolic blood pressure response to AII) [1, 8]: 5 mmHg | Average % Inhibition (angiotensin blockage) of AII vasopressor response [1, 9]: 33% | Average Change (systolic blood pressure response to AII) [1, 9]: 25 mmHg | Change (single reading, systolic blood pressure) [1, 9]: 25 mmHg | Average % Inhibition (angiotensin blockage) of AII vasopressor response [1, 10]: 81% | Average Change (systolic blood pressure response to AII) [1, 10]: 8 mmHg | Change (single reading, systolic blood pressure) [1, 10]: 6 mmHg and 10 mmHg | Average % Inhibition (angiotensin blockage) of AII vasopressor response [1, 11]: 32% | Average Change (systolic blood pressure response to AII) [1, 11]: 29 mmHg | Change (single reading, systolic blood pressure) [1, 11]: 38 mmHg and 20 mmHg | Response After A11 (systolic blood pressure) ([1]; under second '15 IV' line, after AII 0.05 mcg/kg IV, 120 min): 195 mmHg and 185 mmHg | Response After A11 (systolic blood pressure) ([1]; under second '15 IV' line, after AII 0.05 mcg/kg IV, 180 min): 200 mmHg and 160 mmHg | Response After A11 (systolic blood pressure) ([1]; under second '15 IV' line, after AII 0.1 mcg/kg IV, 120 min): 176 mmHg and 180 mmHg | Response After A11 (systolic blood pressure) ([1]; under second '15 IV' line, after AII 0.1 mcg/kg IV, 180 min): 215 mmHg and 160 mmHg | Control Before A11 (systolic blood pressure) ([1]; under second '15 IV' line, before AII 0.05 mcg/kg IV, 120 min): 185 mmHg | Control Before A11 (systolic blood pressure) ([1]; under second '15 IV' line, before AII 0.05 mcg/kg IV, 180 min): 175 mmHg and 135 mmHg | Control Before A11 (systolic blood pressure) ([1]; under second '15 IV' line, before AII 0.1 mcg/kg IV, 120 min): 170 mmHg | Control Before A11 (systolic blood pressure) ([1]; under second '15 IV' line, before AII 0.1 mcg/kg IV, 180 min): 177 mmHg and 140 mmHg | IC50 (Angiotension II Receptor): 660 nM
